Data as given in patent US20180332847A1, “ANTIMICROBIAL METAL CARBOXYLATE-BENZISOTHIAZOLINONE MIXTURES” (Troy Corporation, priority 2017, published 2018).
Read-outs that look alike come from different tables or passages of the source.

What was measured:
[1] = ingredient added at 1 mass % based on total mass of paint
Experimental: Zinc chloride, zinc formate and zinc acetate were added to the acrylic paint formulation.

Klebsiella pneumoniae = assay: Minimum Inhibitory Concentration (MIC) by spiral plater / spiral gradient endpoint against Klebsiella pneumoniae; assay type: cell-based; settings: quantity of calcium ethylhexanoate used alone that gives the desired effect
Experimental: (§1) Synergistic Index=Qa/QA+Qb/QB [Equation No. 1] • where Qa=the quantity of component A used in a binary mixture that gives the desired effect • QA=the quantity of component A which when used alone gives the desired effect • Qb=the quantity of component B used in a binary mixture that gives the desired effect • QB=the quantity of component B which when used alone gives the desired effect
(§2) Minimum Inhibitory Concentration (“MIC”) for each of the antimicrobial compositions was determined against a test microbe, which in this case was a spore suspension of the fungus Alternaria alternata, with the aid of an Autoplate 4000 spiral plater that is commercially available from Spiral Biotech, Inc., Norwood, Mass., and its accompanying spiral gradient endpoint software (hereinafter referred to as “the SGE software”). […]
(§3) Inoculated spiral gradient plates were incubated for 48 hours in an incubator at 28° C. […] This growth endpoint value (expressed in mm as measured from center point of the Petri plate) was used to calculate MIC for the mixture, expressed as parts per million.
Utilizing the procedure described above in Example 1, Minimum Inhibitory Concentration (“MIC”) for each of the antimicrobial compositions was determined against a test microbe, which in this case was a spore suspension of the bacteria Klebsiella pneumoniae. […]

Alternaria alternata = assay: Minimum Inhibitory Concentration (MIC) by spiral plater / spiral gradient endpoint against Alternaria alternata; assay type: cell-based
Experimental: as §1
(§4) Minimum Inhibitory Concentration (“MIC”) for each of the antimicrobial compositions was determined against a test microbe, which in this case was a spore suspension of the fungus Alternaria alternata, with the aid of an Autoplate 4000 spiral plater that is commercially available from Spiral Biotech, Inc., Norwood, Mass., and its accompanying spiral gradient endpoint software (hereinafter referred to as “the SGE software”). The spiral plater automates the normal serial dilution method for determining MICs. Although the details of the SGE software are held confidentially by Spiral Biotech, Inc., they are believed to consistent with the principles set forth in “Measurement of MICs of antibacterial agents by spiral gradient endpoint compared with conventional dilution method” J. H. Paton, H. A. Holt, and M. J. Bywater—Int. J. Exp. Clin. Chemother, 1990.
Spore suspensions for the test microbe were prepared by growing Alternaria alternata on a Difco malt agar slant in an incubator for 1 week at 28° C. Spores were loosened by adding a small amount of buffer solution at pH 7.0 and scraping with a sterile nichrome wire loop. This process was repeated twice. The buffer solution included phosphate buffer and magnesium chloride, and was obtained commercially from Thomas Scientific Company, as Lot #023-0703.
Loosened spores were removed from the slant by aseptically pouring them into a sterile bottle containing 30 ml of the buffer solution and a volume of approximately 40 ml of 6 mm diameter borosilicate glass beads. The bead bottle was shaken to disperse the spores and adjusted to a final liquid volume of 50 ml. For use as a test inoculum, spore density was adjusted in distilled water blanks to that of a 0.5 McFarland nephelometer standard.
(§5) The spiral plater automatically applied 54.3 micro-liters of each antimicrobial composition of interest to the surface of 150 millimeter malt agar plates using an exponential application gradient. The concentration of the antimicrobial concentration was greatest near the center of the Petri plates and decreased toward the edges. Antimicrobial composition gradients were allowed to air dry at room temperature for 1 to 4 hours at 23° C. before inoculation with test microbe. Spiral gradient plates were inoculated by streaking with cotton swabs that had been soaked in test microbe spore suspension. Streaks were applied in a radial pattern, using a paper template generated by the SGE software to guide the application. Eight radii were inoculated per Petri plate. Each radius is considered as one replicated observation.
(§6) Inoculated spiral gradient plates were incubated for 48 hours in an incubator at 28° C. Visible growth of the test microbe developed along the radial streaks and ended where the concentration of the antimicrobial composition was sufficient to prevent growth. This growth endpoint value (expressed in mm as measured from center point of the Petri plate) was used to calculate MIC for the mixture, expressed as parts per million.
Utilizing the procedure described above in Example 1, Minimum Inhibitory Concentration (“MIC”) for each of the antimicrobial compositions was determined against a test microbe, which in this case was a spore suspension of the […] Alternaria alternata.

Saccharomyces cervisiae = assay: Minimum Inhibitory Concentration (MIC) by spiral plater / spiral gradient endpoint against Saccharomyces cervisiae; assay type: cell-based; settings: aqueous calcium gluconate-BIT compositions; MassCG:MassBIT: Trials 1,2 0:1; 3 1:3; 4,5 1:1; 6 3:1; 7,8 1:0
Experimental: as §1, §2, §3
Utilizing the procedure described above in Example 1, Minimum Inhibitory Concentration (“MIC”) for each of the antimicrobial compositions was determined against a test microbe, which in this case was a spore suspension of the yeast Saccharomyces cervisiae. […]

Candida albicans = assay: Minimum Inhibitory Concentration (MIC) by spiral plater / spiral gradient endpoint against Candida albicans; assay type: cell-based; settings: for MIC (ppm) for Candida albicans: 3 1:3, 4,5 1:1, 6 3:1, 7,8 1:0; for QA: used for SI
Experimental: as §1, §4, §5, §6
Utilizing the procedure described above in Example, Minimum Inhibitory Concentration (“MIC”) for each of the antimicrobial compositions was determined against a test microbe, which in this case was a spore suspension of the yeast Candida albicans., as described above in Example 1. Several antimicrobial compositions containing calcium gluconate, BIT, or both in water were investigated, as shown below in Table 3
Utilizing the procedure described above in Example 1, Minimum Inhibitory Concentration (“MIC”) for each of the antimicrobial compositions was determined against a test microbe, which in this case was a spore suspension of the yeast Candida albicans. Several antimicrobial compositions containing calcium glycerate, BIT, or both in water were investigated, as shown below in Table 11.
Utilizing the procedure described above in Example 1, Minimum Inhibitory Concentration (“MIC”) for antimicrobial compositions was determined against a test microbe, which in this case was a spore suspension of the yeast Candida albicans. Several antimicrobial compositions containing calcium glycerate, BIT, or both in water were investigated, as shown below in Table 23.
Utilizing the procedure described above in Example 1, Minimum Inhibitory Concentration (“MIC”) for each of the antimicrobial compositions was determined against a test microbe, which in this case was a spore suspension of the fungus Candida Albicans.

Pseudomonas aeruginosa = assay: Minimum Inhibitory Concentration (MIC) by spiral plater / spiral gradient endpoint against Pseudomonas aeruginosa; assay type: cell-based; settings: 3 1:3, 4,5 1:1, 6 3:1, 7,8 1:0
Experimental: as §1, §4, §5, §6
Utilizing the procedure described above in Example 1, Minimum Inhibitory Concentration (“MIC”) for each of the antimicrobial compositions was determined against a test microbe, which in this case was a spore suspension of the bacterium Pseudomonas aeruginosa. Several antimicrobial compositions containing calcium gluconate, BIT, or both in water were investigated, as shown below in Table 7.
Utilizing the procedure described above in Example 1, Minimum Inhibitory Concentration (“MIC”) for each of the antimicrobial compositions was determined against a test microbe, which in this case was a […] Pseudomonas aeruginosa. Several antimicrobial compositions containing calcium glycerate, BIT, or both in water were investigated, as shown below in Table 13.
Utilizing the procedure described above in Example 1, Minimum Inhibitory Concentration (“MIC”) of certain antimicrobial compositions was determined against a test microbe, which in this case was a spore suspension of the bacterium Pseudomonas aeruginosa. Several antimicrobial compositions containing zinc gluconate, BIT, or both in water were investigated, as shown below in Table 19.

[2] = test system: mixed bacterial inoculum: Pseudomonas aeruginosa (ATCC #10145), Escherichia coli (ATCC #11229), Enterobacter aerogenes (ATCC #13048), Alcaligenes faecalis …; assay: Two-part bacterial challenge of acrylic latex paint samples with a mixed inoculum (performance ratings); assay type: cell-based; parameters: key to Performance Ratings Week 1, 1 Day / Performance Ratings Week 1, 2 Days / Performance Ratings Week 1, 8 Days / Performance Ratings Week 2, 1 Day / Performance Ratings Week 2, 2 Days / Performance Ratings Week 2, 8 Days: 0: No bacterial growth; 1: Trace of bacterial growth; 2: Light bacterial growth; 3: Moderate bacterial growth; 4: Heavy bacterial growth
Experimental: In order to quantify the antibacterial effectiveness of an antimicrobial composition of interest, samples were prepared by adding various amounts of the antimicrobial composition to identical volumes of a paint that contained no preservatives and was not contaminated by bacteria. In this case, the test sample was a white, aqueous-based, acrylic latex paint. The paint included an acrylic resin, and conventional additives such as surfactant, thickener, defoamer, and titanium oxide.
The samples of the paint were subjected to a two-part challenge procedure and the sample that provided acceptable anti-bacterial protection with the lowest concentration of the antimicrobial composition was identified. Each part of the anti-bacterial challenge consisted of a 7-day test cycle. The parts were performed consecutively over 14 test days.
Challenge testing was accomplished using a mixed bacterial inoculum as the contamination event. These bacteria are Pseudomonas aeruginosa (ATCC #10145), Escherichia coli (ATCC #11229), Enterobacter aerogenes (ATCC #13048), and Alcaligenes faecalis (ATCC #25094). To prepare the test inoculum, each type of bacteria was harvested separately in nutrient broth. Just before use in the challenge test, equal strengths of each bacterial culture were mixed to obtain an inoculum of approximately 10^8 colony forming units per milliliter (cfu/mL).
After incubation, both control blanks and samples containing preservatives of interest were inoculated with the mixed inoculum to a final of 1.0 weight %. […]
Performance ratings of 0, 1, 2, 3 or 4 for each inoculated paint sample were determined by visual inspection of the streak lines, according to the definitions set forth below in Table 25.

Escherichia coli = assay: Minimum Inhibitory Concentration (MIC) by spiral plater / spiral gradient endpoint against Escherichia coli; assay type: cell-based; settings: MIC of zinc gluconate alone for Escherichia coli (average of Trials 7, 8), used for SI
Experimental: as §1, §4
The spiral plater automatically applied 54.3 micro-liters of each antimicrobial composition of interest to the surface of 150 millimeter malt agar plates using an exponential application gradient. The concentration of the antimicrobial concentration was greatest near the center of the Petri plates and decreased toward the edges. […]
as §3
Utilizing the experimental procedure described above in Example 1, the MIC against Escherichia coli of several antibacterial compositions containing zinc gluconate, BIT, or both in water were determined.

Staphylococcus aureus = assay: Minimum Inhibitory Concentration (MIC) by spiral plater / spiral gradient endpoint against Staphylococcus aureus; assay type: cell-based
[3] = aqueous calcium gluconate-BIT compositions, MassCG:MassBIT: Trials 1,2 0:1
[4] = aqueous calcium glycerate-BIT compositions, MassCGLY:MassBIT: Trials 1,2 0:1
[5] = zinc glycerate (without BIT), zinc glycerate-BIT series

## CC(=O)[O-].CC(=O)[O-].[Zn+2] [Zinc acetate]
[1]
  Observation (viscosity of conventional acrylic paint): Paint gelled after mixing for
[1]; listed as zinc acetate
  Observation (viscosity of conventional acrylic paint): caused the paint to gel

## [Cl-].[Cl-].[Zn+2] [Zinc chloride]
[1]
  Observation (viscosity of conventional acrylic paint): Paint gelled immediately
[1]; listed as zinc chloride
  Observation (viscosity of conventional acrylic paint): caused the paint to gel

## O=C[O-].O=C[O-].[Zn+2] [Zinc formate]
[1]
  Observation (viscosity of conventional acrylic paint): Paint gelled immediately
[1]; listed as zinc formate
  Observation (viscosity of conventional acrylic paint): caused the paint to gel

## calcium ethylhexanoate
Klebsiella pneumoniae
  QA: 7.5 ppm
Alternaria alternata; quantity of calcium ethylhexanoate used alone that gives the desired effect (average of two trials), Alternaria alternata
  QA: 7.5 ppm

## calcium gluconate
Saccharomyces cervisiae
  MIC (ppm) for Saccharomyces cervisiae: > 768 ppm
Candida albicans; [3]
  MIC (ppm) for Candida albicans: > 768 ppm
Pseudomonas aeruginosa; [3]
  MIC (ppm) for Pseudomonas aeruginosa: > 1127 ppm
Pseudomonas aeruginosa; aqueous zinc gluconate-BIT compositions, MassZG:MassBIT: Trials 1,2 0:1
  MIC (ppm) for Pseudomonas aeruginosa: > 2300 ppm

## calcium glycerate
Candida albicans; [4]
  MIC (ppm) for Candida albicans: > 768 ppm
Pseudomonas aeruginosa; [4]
  MIC (ppm) for Pseudomonas aeruginosa: > 1230 ppm
Alternaria alternata; aqueous calcium glycerate-BIT compositions, MassCGLY:MassBIT: Trials 1,2 0:1, 3 1:3, 4,5 1:1, 6 3:1, 7,8 1:0
  MIC (ppm) for Alternaria alternata: > 788 ppm

## zinc ethylhexanoate
Candida albicans; MIC of zinc ethylhexanoate alone for Candida albicans
  QA: >780 ppm
Alternaria alternata; MIC of zinc ethylhexanoate alone for Alternaria alternata, used for SI
  QA: >780 ppm
Alternaria alternata; zinc ethylhexanoate (without BIT), average of two trials
  amount required to prevent growth of Alternaria alternata (MIC): > 780 ppm

## zinc gluconate
[2]; 5000 ppm in acrylic latex paint, Week 1, 1 Day after inoculation
  Performance Ratings Week 1, 1 Day: 4
[2]; 5000 ppm in acrylic latex paint, Week 1, 2 Days after inoculation
  Performance Ratings Week 1, 2 Days: 4
[2]; 5000 ppm in acrylic latex paint, Week 1, 8 Days after inoculation
  Performance Ratings Week 1, 8 Days: 4
[2]; 5000 ppm in acrylic latex paint, Week 2, 1 Day after inoculation
  Performance Ratings Week 2, 1 Day: 4
[2]; 5000 ppm in acrylic latex paint, Week 2, 2 Days after inoculation
  Performance Ratings Week 2, 2 Days: 4
[2]; 5000 ppm in acrylic latex paint, Week 2, 8 Days after inoculation
  Performance Ratings Week 2, 8 Days: 4
[2]; conventional latex paint with 5000 ppm of zinc gluconate added, mixed inoculum, two 7-day cycles
  bacterial stability test: fails
Escherichia coli
  QA: 565 ppm

## zinc glycerate
Candida albicans; MIC of zinc glycerate alone for Candida albicans
  QA: >768 ppm
Candida albicans; metal carboxylate without BIT, zinc ethylhexanoate-BIT series (Example 16, Table 31)
  MIC for Candida albicans: > 780 ppm
Candida albicans; [5]
  MIC for Candida albicans: > 768 ppm
Staphylococcus aureus; MIC of zinc glycerate alone for Staphylococcus aureus, used for SI
  QA: >1283 ppm
Staphylococcus aureus; [5]
  MIC for Staphylococcus aureus: > 768 ppm
Alternaria alternata; MIC of zinc glycerate alone for Alternaria alternata, used for SI
  QA: >788 ppm
Alternaria alternata; [5]
  MIC for Alternaria alternata: > 768 ppm
